# Literature values as cited in patent publication US20220257562A1, “METHOD FOR IMPROVING ENDOMETRIOSIS AND METHOD FOR PRODUCING A MATERIAL USED THEREFOR” (NICHIMO CO., LTD., priority 2017, published 2022).
# Key:
# MCF-7 = settings: for effect on tamoxifen: MCF-7 / mammary tumors, Non-patent Literature 15, 17; for cell proliferation of estrogen-dependent breast cancer cells (MCF-7): Non-patent Literature 14, 16
# ERβ = ERβ (Homo sapiens, UniProt Q92731); settings: Non-Patent Literature 23
# Sequence of ERβ (Q92731 whole entry, species assumed): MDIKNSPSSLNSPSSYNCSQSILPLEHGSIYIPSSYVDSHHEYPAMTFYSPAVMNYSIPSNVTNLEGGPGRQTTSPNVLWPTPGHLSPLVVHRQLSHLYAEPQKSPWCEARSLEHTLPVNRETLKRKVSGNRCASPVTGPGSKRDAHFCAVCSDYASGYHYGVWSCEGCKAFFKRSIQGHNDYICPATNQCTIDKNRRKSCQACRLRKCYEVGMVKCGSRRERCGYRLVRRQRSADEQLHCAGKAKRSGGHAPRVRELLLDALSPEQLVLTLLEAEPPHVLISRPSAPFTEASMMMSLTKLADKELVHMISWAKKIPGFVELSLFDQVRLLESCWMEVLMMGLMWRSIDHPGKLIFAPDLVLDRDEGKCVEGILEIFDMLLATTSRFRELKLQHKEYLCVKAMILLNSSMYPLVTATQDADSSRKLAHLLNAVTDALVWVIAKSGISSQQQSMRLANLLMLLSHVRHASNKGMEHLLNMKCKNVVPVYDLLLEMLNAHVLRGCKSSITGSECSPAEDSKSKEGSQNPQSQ
binding to ERβ (ERβ),SMILES,effect on tamoxifen (MCF-7),cell proliferation of estrogen-dependent breast cancer cells (MCF-7) (MCF-7)
binds weakly,O=c1c(-c2ccc(O)cc2)coc2cc(O)ccc12 [daidzein],improved the therapeutic effect of tamoxifen,suppressed the proliferation
–,"O=c1c(-c2ccc(O)cc2)coc2cc(O)cc(O)c12 [Genistein, genistein]",attenuates the inhibitory effect of tamoxifen,promotes cell proliferation
